Test: water solubility of the alkycycline
Type: physicochemical
Protocol: The alkycycline of formula Ia as defined above is quite water insoluble (less than 0.1 mg/ml). This makes it difficult to be formulated as a sterile, storage stable, dosage form. Additionally, the alkycycline is unstable: • after twelve months at 4°C the decomposition of the bulk product is about from 4 to 6%. This percentage of decomposition is absolutely not acceptable for a pharmaceutical product.

## 4-demethoxy-3'-deamino-3'-aziridinyl-4'-methansulfonyl daunorubicin [Ia]
  water solubility: less than 0.1 mg/ml

— patent EP1227795B1, “LIPID COMPLEX OF ALKYCYCLINES” (priority 1999, dated 2001)
